“And” between values parts separate entries of the source, which are not always exact repeats. Equal values may be shown once. “Also recorded” adds a separate entry of the source. Read-outs that look alike come from different tables or passages of the source.
Columns and labels:
TbGK = TbGK (Trypanosoma brucei brucei, UniProt Q9NJP9); assay: T. b. brucei glycerol kinase enzyme-coupled spectrophotometric assay; assay type: biochemical; conditions: mean of three independent experiments; 25°C
Method: The expression construct has been obtained by subcloning the corresponding GK gene (isolated from T. b. brucei strain Lister 427) from the formerly designed pET15-TbGK plasmid into vector pET28 to create the final expression plasmid pET28-TbGK (unpublished data). TbGK was then expressed in E. coli BL21(DE3)-CodonPlus-RIL grown in 1 liter LB medium supplemented with kanamycin (50 µg/ml) and chloramphenicol (34 µg/ml) for 16 h at 37°C. Expression was induced by adding 1 mM isopropyl β-d-thiogalactanopyranoside (IPTG), and growth was continued for another 2 h at 37°C. […] TbGK was eluted using a 10 column volumes linear imidazole-gradient using buffer A and buffer B. Eluted fractions were analyzed by SDS-PAGE. […] After overnight incubation at 16°C, the digested protein was concentrated and desalted using a Superdex 75 column equilibrated with buffer A. Protein concentration was determined at 280 nm (extinction coefficient = 81650 M^−1 cm^−1). […]
The TbGK activity was measured using a modified version of a continuous enzyme-coupled spectrophotometric assay developed previously. […] The IC50 value of B6 was calculated as the mean of three independent experiments.

TbGAPDH = TbGAPDH (Trypanosoma brucei brucei, UniProt P22512); assay: T. b. brucei glyceraldehyde-3-phosphate dehydrogenase enzyme-coupled spectrophotometric assay; assay type: biochemical; conditions: for IC50: 10 min pre-incubation
Sequence of TbGAPDH (P22512 whole entry): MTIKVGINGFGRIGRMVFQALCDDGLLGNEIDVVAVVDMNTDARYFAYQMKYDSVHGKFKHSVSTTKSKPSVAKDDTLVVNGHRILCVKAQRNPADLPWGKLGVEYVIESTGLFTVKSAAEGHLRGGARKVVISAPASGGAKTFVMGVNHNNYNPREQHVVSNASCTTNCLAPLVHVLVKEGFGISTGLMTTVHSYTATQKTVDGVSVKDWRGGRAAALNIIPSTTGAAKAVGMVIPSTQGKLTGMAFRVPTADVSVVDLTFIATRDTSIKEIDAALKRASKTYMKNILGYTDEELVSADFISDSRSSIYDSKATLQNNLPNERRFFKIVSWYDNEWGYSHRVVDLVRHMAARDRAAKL
Method: The kinetics of the TbGAPDH reaction was monitored using a continuous enzyme-coupled spectrophotometric assay, as previously described. In brief, TbGAPDH activity was measured following the NADH oxidation at 340 nm, in a coupled assay with 3-phosphoglycerate kinase and using a Jasco V-550 spectrophotometer.
All measurements were performed at 25°C in 0.01 M triethanolamine, pH 7.6, 1.7 mM ATP, 1 mM EDTA, 100 mM KCl, 5 mM MgSO4, 1.7 mM NaHCO3, 25 µg 3-phosphoglycerate kinase. The IC50 values were determined in a final volume of 1 ml in the presence of 120 ng TbGAPDH and 5.6 mM 3-phosphoglycerate (3-PGA), while varying the B6 concentration after a pre-incubation of enzyme plus inhibitor for 10 min. The reaction was started by the addition of 0.2 mM NADH. Each point of the curve was measured in triplicates and the value for IC50 was estimated from graphically plotted dose-response curves.
The type of inhibition was determined with respect to NADH and 3-PGA in consideration of Michaelis-Menten steady-state conditions. To investigate the inhibition mechanism with respect to NADH, TbGAPDH was incubated for 10 min at room temperature with different inhibitor concentrations (0–15 µM) in a total volume of 1 ml. The reaction was initiated by the addition of 5.6 mM 3-PGA and NADH (ranging from 5 µM to 200 µM). The inhibition mechanism with respect to 3-PGA was determined in a similar way. To this end, TbGAPDH was incubated with varying inhibitor concentrations (10 nM–100 µM). The reaction was initiated by the addition of 0.2 mM NADH and 3-PGA (ranging from 50 µM to 5.6 mM). The α and Ki values were obtained from Dixon and secondary plots. The reported values represent the mean of two independent experiments.

[1] = test system: bloodstream-form T. b. brucei strain Lister 427; assay: Growth inhibition (LILIT) of bloodstream-form T. b. brucei; assay type: cell-based; conditions: cultured bloodstream form
Method: (§1) We used bloodstream and procyclic forms of T. b. brucei strain Lister 427, cell lines 449 [34], constitutively expressing the E. coli tetracycline (Tet) repressor gene via the chromosomally integrated plasmid pHD449 that also confers phleomycin resistance. Bloodstream forms were cultured in HMI-9 medium containing 10% heat-inactivated foetal calf serum (Invitrogen) and 0.18 µg/ml phleomycin (Cayla) at 37°C under water-saturated air with 5% CO2. Procyclic trypanosomes were grown in SDM79 medium supplemented with 15% foetal calf serum and 0.5 µg/ml phleomycin at 28°C under water-saturated air with 5% CO2. The glucose-depleted SDM-80 medium, first employed by Lamour et al., was supplemented with 5 µg/ml hemin, 9% (v/v) dialyzed “glucose free” heat-inactivated foetal calf serum (Sigma) and 1% (v/v) of normal heat-inactivated foetal calf serum (Invitrogen).
(§2) The anti-trypanosomal activity tests were also performed on T. b. brucei according to the “Long Incubation Low Inoculation Test” (LILIT), [39] using cultured bloodstream and procyclic forms of T. b. brucei strain Lister 427, cell line 449 [34].

[2] = test system: procyclic T. b. brucei strain Lister 427; assay: Growth inhibition (LILIT) of procyclic T. b. brucei with or without glucose; assay type: cell-based
Method: as §1, §2
Tests of growth inhibition by B6 were performed on procyclic trypanosomes cultured in medium containing glucose (SDM79 medium), resulting in glycolytic activity for the cells' main energy supply, or without glucose (SDM80 medium), where the proline is the main substrate for free energy production through mitochondrial metabolism. Under these latter conditions, the glycosomal GAPDH would still be needed for gluconeogenesis, to synthesize glucose 6-phosphate for production of glucoconjugates, but the gluconeogenic flux is assumed to be much lower than the glycolytic flux when glucose is present.

[3] = test system: bloodstream form T. b. brucei G6PDH RNAi cell line; assay: Growth inhibition of bloodstream-form T. b. brucei G6PDH RNAi cell line; assay type: cell-based
From the text: To provide support for the notion that the trypanocidal effect of B6 could in part be attributed to the generation of toxic ROS, we made use of an available bloodstream form T. b. brucei cell line in which glucose-6-phosphate dehydrogenase (G6PDH) expression can be knocked down by RNA interference (RNAi). Previously, it has been shown that this cell line grows equally well as wild-type cells under normal (reducing) growth conditions, but it is highly susceptible to ROS when the G6PDH expression is partially knocked down, an effect attributed to decreased NADPH production.

[4] = test system: permeabilized T. b. brucei bloodstream-form cells; assay: Oxygen consumption in permeabilized bloodstream-form cells (Clark electrode); assay type: cell-based
Method: Oxygen consumption was monitored in a thermostated vessel at 37°C with a Clark electrode (oxygraph). Measurements in permeabilized bloodstream-form T. brucei were done in buffer 1 (96.9 mM NaCl, 3.1 mM KCl, 5 mM MgCl2, 2 mM Na2HPO4, 90 mM Tris at pH 7.5). Batches of 2×10^7 cells were pelleted, washed in buffer 1 and incubated for 5′ on ice in 1 ml of buffer 1 containing 1 ng digitonin to permeabilize the cells. Subsequently the permeabilized cells were pelleted and washed twice with buffer 1 without digitonin after which the pellet was taken up in 1 ml buffer 1 and transferred to the oxygraph. Substrates and inhibitors were added as described in the text.
B6 and SHAM were dissolved in DMSO. The DMSO concentration used in these oxygen consumption measurements was less than 0.7%.
To determine whether B6 could exert its trypanocidal action also through this mechanism, respiration was monitored in permeabilized T. b. brucei bloodstream-form cells in the presence of B6 and/or SHAM (Fig. 7). SHAM is an inhibitor of TAO, which acts as the final electron acceptor in bloodstream form T. b. brucei.

[5] = test system: T. b. brucei bloodstream-form mitochondria; assay: ROS (H2O2) production by mitochondrial fraction, H2DCFDA fluorescence; assay type: cell-based; conditions: 10 µM B6, in the presence of G3P
Method: Bloodstream- and procyclic-form T. b. brucei cells (strain Lister 427, cell line 449) were cultured up to the exponential growth phase and homogenates were obtained by grinding the washed parasite pellets with silicon-carbide abrasive grain (mesh 300) in disruption buffer containing 250 mM sucrose, 25 mM Tris-HCl and l mM EDTA, pH 7.8 (STE buffer). Differential centrifugation was performed as follows: the suspension was taken up in another 3 ml STE buffer and centrifuged at 30 g for 3 min. The supernatant, representing the cell homogenate, was centrifuged at 1,500 g for 10 min giving the nuclear fraction. The post-nuclear supernatant was then centrifuged at 5,000 g for 10 min giving the large-granular (mitochondria-enriched) fraction as pellet. This fraction was resuspended in 300 µl STE buffer.
The method used to measure H2O2 production in T. b. brucei mitochondria is based on the fluorogenic probe 2′,7′-dichlorodihydrofluorescein diacetate (H2DCFDA) which emits an intense green fluorescence only after deacetylation and subsequent oxidation. ROS production by the mitochondrial fraction of bloodstream form T. b. brucei was measured in a 96-well microtiter plate using a fluorescence plate reader (Victor Wallace multiplate reader).
In each well, 0.25 mg mitochondrial protein/ml and 5 µM H2DCFDA to a final volume of 0.2 ml with 10 mM Tris-HCl, 50 mM KCl, 1 mM EDTA, pH 7.5 were present. […]

[6] = test system: Trypanosoma brucei rhodesiense; parameters: method as in PMID 18353643; conditions: cited from earlier work
mammalian cell lines = test system: mammalian cell lines; parameters: method as in PMID 18353643; conditions: ratio of ED50 values on mammalian cell lines and trypanosomes; cited from earlier work
[7] = test system: Trypanosoma brucei rhodesiense; assay: T. b. rhodesiense in vitro growth inhibition; assay type: cell-based; conditions: for IC50: Trypanosoma brucei, RHODESIENSE / STIB900, Figure 1, bloodstream form STIB 900 strain, read-out: IC50 against Trypanosoma brucei rhodesiense parasites
Method: The synthesized compounds were then tested against T. b. rhodesiense parasites as previously reported, and their activities are shown in Figure 1 along with that of B6.
T. b. rhodesiense in vitro growth inhibition activity of 1–3 (Fig. 1) was assessed using bloodstream form of STIB 900 strain, following the procedure reported in Orhan et al..

Trypanosoma = test system: Trypanosoma; parameters: method as in earlier work; conditions: cited from earlier work
[8] = parameters: method as in earlier work; conditions: cited from earlier work

Sequence of TbGK (Q9NJP9 whole entry): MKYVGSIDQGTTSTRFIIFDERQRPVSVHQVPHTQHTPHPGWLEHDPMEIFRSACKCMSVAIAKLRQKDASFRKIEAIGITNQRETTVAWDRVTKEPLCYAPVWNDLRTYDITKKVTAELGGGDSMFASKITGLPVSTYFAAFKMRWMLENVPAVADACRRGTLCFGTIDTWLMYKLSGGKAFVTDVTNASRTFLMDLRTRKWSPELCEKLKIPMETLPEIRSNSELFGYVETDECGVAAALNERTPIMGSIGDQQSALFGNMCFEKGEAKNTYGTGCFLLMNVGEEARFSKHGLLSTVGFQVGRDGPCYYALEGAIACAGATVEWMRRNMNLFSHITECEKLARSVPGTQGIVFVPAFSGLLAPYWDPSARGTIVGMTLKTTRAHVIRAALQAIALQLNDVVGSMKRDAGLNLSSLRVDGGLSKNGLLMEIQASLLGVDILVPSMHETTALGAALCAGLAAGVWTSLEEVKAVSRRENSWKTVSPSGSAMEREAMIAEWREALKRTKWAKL

Compound `O=C1C=C(Oc2ccccc2)C(=O)c2ccccc21` [B6, 2-phenoxy-1,4-naphthoquinone] has an IC50 (TbGK) of 0.9 ± 0.3 µM, an IC50 (TbGAPDH; then 1:10 dilution of enzyme and inhibitor, read-out: IC50 TbGAPDH after dilution 1:10) of 9.98 ± 3.53 µM and an IC50 (TbGAPDH; standard conditions, without dilution, read-out: IC50 TbGAPDH) of 7.25 ± 1.62 µM. The Ki (TbGAPDH; variation of 3-PGA) was 5 µM and 4.99 µM, the Ki (TbGAPDH; variation of NADH) was 3.6 µM and the α value (TbGAPDH; with respect to 3-PGA) was 0.4. For the same compound, the α value (TbGAPDH; with respect to NADH) was 0.6, the “type of inhibition of TbGAPDH” value (TbGAPDH; with respect to NADH and 3-PGA, double reciprocal plots) was “non-competitive inhibitor (mixed type)” and the “ED50 bloodstream-form T. b. brucei strain Lister 427” value [1] was 24.8 µM. For the same compound, the “fold more susceptible, procyclic versus bloodstream-form” value ([2]; glucose-grown cells, strain Lister 427) was 100 fold, the ED50 procyclic trypanosomes ([2]; medium containing glucose (SDM79)) was 0.25 ± 0.09 µM and 0.25 µM and the ED50 procyclic trypanosomes ([2]; without glucose (SDM80), proline metabolism) was 0.67 ± 0.16 µM. The “ED50 induced RNAi cell line” value ([3]; G6PDH expression knocked down by RNAi) was 0.25 µM, the “ED50 non-induced RNAi cell line” value ([3]; non-induced) was 10.8 µM and the oxygen consumption rate ([4]; cells respiring on 10 mM G3P, absence and presence of SHAM) was “the oxygen consumption rate increased”. For the same compound, the ROS production [5] was “able to generate radicals in a significant way; also recorded: considerable production of ROS”, the IC50 ([6]; Figure 1, lead B6, read-out: IC50 against Trypanosoma brucei rhodesiense parasites) was 0.08 µM and the “ED50 against Trypanosoma brucei rhodesiense” value ([6]; in vitro cultured parasites) was 0.08 µM. For the same compound, the selectivity index (mammalian cell lines) was 74.
For `Nc1ccc(OC2=CC(=O)c3ccccc3C2=O)cc1` [Compound 1, 2-(4-amino-phenoxy)-[1,4]naphthoquinone], the IC50 [7] was 0.57 µM and the “times less active than B6” value ([7]; anti-T. b. rhodesiense activity relative to B6) was 7 times.
`O=C1C(Oc2ccccc2)=CC(=O)c2c(O)cccc21` [Compound 2, 5-hydroxy-2-phenoxy-[1,4]naphthoquinone] showed an IC50 [7] of 4.4 µM.
Compound `O=C1C=C(Oc2ccccc2)C(=O)c2c(O)cccc21` [Compound 3, 8-hydroxy-2-phenoxy-[1,4]naphthoquinone] has an IC50 [7] of 0.85 µM.
With `O=C(NO)c1ccccc1O` [SHAM, salicylhydroxamic acid, reference compound] the respiration ([4]; 2 mM SHAM, 10 mM G3P as electron donor) was “inhibited respiration completely”.
In the case of `CC(C)=CCC1=C(O)C(=O)c2ccccc2C1=O` [lapachol], the anti-trypanosomal profile (Trypanosoma) is listed as “marked anti-trypanosomal profile” and the “toxic effects in humans” value [8] is listed as “no serious toxic effects in humans”.

— publication PMC3547856, “Naphthoquinone Derivatives Exert Their Antitrypanosomal Activity via a Multi-Target Mechanism” (PLoS Neglected Tropical Diseases, 2013)
